pIC50: −log10 of the molar value.
Tested on: K24384-001-R-PDC complex spheroids, viability
Experiment: Anticancer human tumor K24384-001-R-PDC patient-derived pancreatic adenocarcinoma cell line growth inhibition [GQUAD]
Details: for pIC50: curve of first compound; for viability, T/C: stronger effect = lower value; active = viability on the fitted dose curve at most 10% of control; inactive = the rest
How it was run: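 Multi-cell-type spheroids of tumor cells with HUVEC and mesenchymal stem cells, treated with drug combinations. Concentrations descend in half-log steps from near clinical Cmax, or from 10 microM where Cmax is unknown; viability read-out.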
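Also: spheroids exposed to compounds for seven days.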

Cc1cccc(N(C)C(=O)C2C(O)CCN2c2nc(C)cc(C(F)(F)F)c2C#N)c1 (configuration not stated) + Cc1[nH]c2ccc(F)cc2c1-c1nc2c3cccnc3c3ncccc3c2[nH]1
inactive: viability, T/C (second compound 0.0316 µM, first compound 0.0316 µM) 98.2% | viability, T/C (second compound 0.0316 µM, first compound 0.1 µM) 90.9% | viability, T/C (second compound 0.0316 µM, first compound 0.316 µM) 105% | viability, T/C (second compound 0.0316 µM, first compound 1 µM) 95.2% | viability, T/C (second compound 0.0316 µM, first compound 3.16 µM) 116% | viability, T/C (second compound 0.0316 µM, first compound 10 µM) 117% | viability, T/C (second compound 0.1 µM, first compound 0.0316 µM) 95.3% | viability, T/C (second compound 0.1 µM, first compound 0.1 µM) 102% | viability, T/C (second compound 0.1 µM, first compound 0.316 µM) 103% | viability, T/C (second compound 0.1 µM, first compound 1 µM) 100% | viability, T/C (second compound 0.1 µM, first compound 3.16 µM) 131% | viability, T/C (second compound 0.1 µM, first compound 10 µM) 118% | viability, T/C (second compound 0.316 µM, first compound 0.0316 µM) 81.5% | viability, T/C (second compound 0.316 µM, first compound 0.1 µM) 103% | viability, T/C (second compound 0.316 µM, first compound 0.316 µM) 107% | viability, T/C (second compound 0.316 µM, first compound 1 µM) 104% | viability, T/C (second compound 0.316 µM, first compound 3.16 µM) 105% | viability, T/C (second compound 0.316 µM, first compound 10 µM) 128% | viability, T/C (second compound 1 µM, first compound 0.0316 µM) 85.4% | viability, T/C (second compound 1 µM, first compound 0.1 µM) 91.2% | viability, T/C (second compound 1 µM, first compound 0.316 µM) 87.9% | viability, T/C (second compound 1 µM, first compound 1 µM) 99% | viability, T/C (second compound 1 µM, first compound 3.16 µM) 114% | viability, T/C (second compound 1 µM, first compound 10 µM) 93.4% | viability, T/C (second compound 3.16 µM, first compound 0.0316 µM) 83.1% | viability, T/C (second compound 3.16 µM, first compound 0.1 µM) 75% | viability, T/C (second compound 3.16 µM, first compound 0.316 µM) 77.4% | viability, T/C (second compound 3.16 µM, first compound 1 µM) 85% | viability, T/C (second compound 3.16 µM, first compound 3.16 µM) 83.7% | viability, T/C (second compound 3.16 µM, first compound 10 µM) 71.8% | viability, T/C (second compound 10 µM, first compound 0.0316 µM) 74.4% | viability, T/C (second compound 10 µM, first compound 0.1 µM) 85.5% | viability, T/C (second compound 10 µM, first compound 0.316 µM) 74.4% | viability, T/C (second compound 10 µM, first compound 1 µM) 85.6% | viability, T/C (second compound 10 µM, first compound 3.16 µM) 67.9% | viability, T/C (second compound 10 µM, first compound 10 µM) 75.5%
< 5.00: pIC50 (second compound 0.0316 µM) | pIC50 (second compound 0.1 µM) | pIC50 (second compound 0.316 µM) | pIC50 (second compound 1 µM) | pIC50 (second compound 3.16 µM) | pIC50 (second compound 10 µM)

Reference: PubChem BioAssay AID2060483 (Molecular Pharmacology Branch, DTP, NCI, 2025)
